Patent US20040198794A1, “Ondansetron forms and processes of making the same” (priority 2003, published 2004)
Values belong to the compound of their own block, whether it stands above or below them.

What was measured:
Format in all cases: physicochemical
[1] = Solvent-induced conversion between forms by slurrying
Source text: It is sensitive to a solvent-induced conversion into a form II defined below by slurrying in some polar solvents, e.g. in methanol or water, while it is inert to the same slurrying or solvent treatment in non-polar solvents. […] Form II is resistant to a solvent-inducing conversion to form I at ambient temperature.

[2] = Storage stability of solid ondansetron forms
[3] = Dissolution and release of microcrystalline ondansetron; conditions: particle size smaller than 200 microns
Source text: It has been further discovered that ondansetron base having a particle size smaller than 200 microns (hereinafter “microcrystalline ondansetron”) is more suitable in making pharmaceutical formulations.

[4] = Hydration of solid ondansetron base on exposure to humidity
Source text: After storage of the anhydrate form at humidity exceeding 10% RH, hydrates may be formed. A stable hydrated form comprise 1.3-1.5% of water, this corresponding to approximately 0.25 molar equivalent of water (a hemi-hemihydrate). Accordingly, another ondansetron form of the present invention is an ondansetron hydrate comprising ondansetron and water wherein the amount of water relative to ondansetron is within the range of 0.23-0.27 moles, more preferably 0.24-0.26 moles, per each one mole of ondansetron. Exposure of this or the anhydrated product to enhanced humidity (70% RH) results in a product having about 3% water content which corresponds to a hemihydrate (0.5 molar equivalent of water). Exposure to extreme humidity of about 90% or more leads to a monohydrate form of about 5% water. The most useful hydrated form of ondansetron base is the hemi-hemi hydrate as this is formed under most precipitation conditions and is stable. The above forms I or II are preferably hydrates containing 1.3-1.5% of water.

solvent-inducing conversion to form I ([1]; ambient temperature): resistant
form conversion during storage ([2]; prolonged storage at 40° C./75% relative humidity (RH)): partial conversion to Form I
stability during storage ([2]; room temperature, stored in closed vial): stable
Structure (SMILES): Cc1nccn1CC1CCc2c(c3ccccc3n2C)C1=O (stereo not shown) [Form II]

solvent-induced conversion into form II ([1]; slurrying in some polar solvents, e.g. methanol or water): sensitive
solvent-induced conversion into form II ([1]; slurrying or solvent treatment in non-polar solvents): inert
stability during storage ([2]; storage at ambient and elevated temperatures): sufficiently stable
Structure (SMILES): Cc1nccn1CC1CCc2c(c3ccccc3n2C)C1=O (stereo not shown) [form I]

dissolution in liquid medium ([3]; making liquid compositions): dissolves more rapidly
release from the tablet composition [3]: releases more rapidly
Structure (SMILES): Cc1nccn1CC1CCc2c(c3ccccc3n2C)C1=O (stereo not shown) [microcrystalline ondansetron]

water content after exposure to humidity ([4]; enhanced humidity (70% RH), corresponds to a hemihydrate): about 3%
water content after exposure to humidity ([4]; extreme humidity of about 90% or more, monohydrate form): about 5%
Structure (SMILES): Cc1nccn1CC1CCc2c(c3ccccc3n2C)C1=O (stereo not shown) [ondansetron base]
